Measurements published in US9296704B2, “Substituted pyrimidines as protein kinase inhibitors” (CELGENE AVILOMICS RESEARCH, INC., priority 2007, dated 2016).

Columns and labels:
[1] = target: ErbB1 (Homo sapiens, UniProt P00533); test: Z'-LYTE biochemical assay, ErbB1 kinase inhibition
Method in brief: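 Fluorescence-based coupled-enzyme Z′-LYTE format: kinase phosphorylation of a peptide substrate is read by differential protease cleavage of phosphorylated versus non-phosphorylated peptide.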

[2] = target: ErbB2 (Homo sapiens, UniProt P04626); test: Z'-LYTE biochemical assay, ErbB2 kinase inhibition
Description: (§1) Compounds of the present invention were assayed as inhibitors of one or more of ErbB1, ErbB2, and/or ErbB4 in a manner substantially similar to the method described by Invitrogen Corp (Invitrogen Corporation, 1600 Faraday Avenue, Carlsbad, Calif., CA; http://www.invitrogen.com/downloads/Z-LYTE_Brochure—1205.pdf) using the Z′-LYTE™ biochemical assay procedure or similar biochemical assay. The Z′-LYTE™ biochemical assay employs a fluorescence-based, coupled-enzyme format and is based on the differential sensitivity of phosphorylated and non-phosphorylated peptides to proteolytic cleavage.

[3] = tested on: BTK in Ramos cells; test: Washout experiment with Ramos cells for BTK activity; type: cell-based, human; conditions: for BTK Inhibition Type: Ramos washout assay, 100 nM compound for 1 hour
Description: Ramos cells were serum starved for one hour in RPMI media+1% glutamine at 37° C. After starvation, Ramos cells were treated with 100 nM compound diluted in serum free RPMI media for 1 hour. After compound treatment, the media was removed and cells were washed with compound-free media. Subsequently, Ramos cells were washed every 2 hours and resuspended in fresh compound-free media. Cells were collected at specified timepoints, treated with 1 ug anti-human IgM (Southern Biotech cat #2022-01) for 10 minutes on ice to induce BCR signaling and then washed in PBS. Ramos cells were then lysed in Cell Extraction Buffer (Invitrogen FNN0011) supplemented with Roche complete protease inhibitor tablets (Roche 11697498001) and phosphatase inhibitors (Roche 04 906 837 001) and 18 ug total protein lysate was loaded in each lane. Inhibition of BTK kinase activity was assayed by measuring its substrate (PLCγ2) phosphorylation by western blot with phospho-specific antibodies from Cell Signaling Technologies cat#3871. FIG. 10 depicts the results of compound I-13 in the washout experiment at 0 hour, 4 hour, 6 hour, and 8 hour time points.

[4] = target: T1, TEC kinase (Homo sapiens, UniProt P42680); test: Mass spectrometry for TEC kinase (tryptic digest); type: binding, homo sapien; conditions: 10× excess, 3 hrs, MALDI
T1 construct: purchased Invitrogen
T1 sequence (P42680 1-631): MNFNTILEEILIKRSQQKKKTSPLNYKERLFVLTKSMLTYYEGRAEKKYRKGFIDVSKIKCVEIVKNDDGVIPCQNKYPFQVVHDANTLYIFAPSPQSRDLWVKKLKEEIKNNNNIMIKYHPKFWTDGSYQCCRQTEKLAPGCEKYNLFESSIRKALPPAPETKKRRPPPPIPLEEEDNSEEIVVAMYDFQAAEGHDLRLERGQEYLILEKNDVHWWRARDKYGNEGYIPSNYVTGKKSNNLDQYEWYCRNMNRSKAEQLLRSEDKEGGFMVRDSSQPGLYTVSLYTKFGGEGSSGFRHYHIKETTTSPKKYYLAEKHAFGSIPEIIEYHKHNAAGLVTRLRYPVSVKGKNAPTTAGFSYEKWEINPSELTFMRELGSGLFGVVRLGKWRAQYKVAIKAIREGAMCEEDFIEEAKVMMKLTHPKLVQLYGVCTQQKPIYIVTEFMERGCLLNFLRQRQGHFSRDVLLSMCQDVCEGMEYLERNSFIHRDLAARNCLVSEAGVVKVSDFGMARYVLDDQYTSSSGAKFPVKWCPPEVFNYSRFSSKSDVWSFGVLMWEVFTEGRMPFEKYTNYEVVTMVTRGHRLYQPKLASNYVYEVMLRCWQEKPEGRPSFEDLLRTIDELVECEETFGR
Description: TEC kinase (45 pmols; Invitrogen) was incubated with (I-13) (450 pmols) for 3 hrs at 10× access prior to tryptic digestion. Iodoacetamide was used as the alkylating agent after compound incubation. […] For tryptic digests a 5 ul aliquot (7.5 pmols) was diluted with 15 ul of 0.1% TFA prior to micro C18 Zip Tipping directly onto the MALDI target using alpha cyano-4-hydroxy cinnamic acid as the matrix (5 mg/ml in 0.1% TFA:Acetonitrile 50:50).
As depicted in FIG. 11, the expected peptide (GCLLNFLR) to be modified was immediately evident at MH+ of 1358.65. This is the mass to be expected when compound I-13, with an adduct mass of 423.17, is added to the peptide mass of 935.51. The peptide was also quite evident in the control sample as modified by Iodacetamide at MH+ of 992.56. […] There was no evidence of any other modified peptides.
To further verify the presence of the modified peptide with compound I-13, the peptide at MH+ of 1358.65 was subjected to PSD (MS/MS) analysis. A correlational analysis with the homo sapien database identified the correct peptide modified by I-13.
For tryptic digests the instrument was set in Reflectron mode with a pulsed extraction setting of 2200. Calibration was done using the Laser Biolabs Pep Mix standard (1046.54, 1296.69, 1672.92, 2093.09, 2465.20). […]

[5] = target: ErbB4 (Homo sapiens, UniProt Q15303); test: Z'-LYTE biochemical assay, ErbB4 kinase inhibition
Description: as §1

[6] = target: BTK (Homo sapiens, UniProt Q06187); test: Mass spectrometry for BTK (intact protein); type: binding; conditions: 10× excess, 1 hr, MALDI
Description: Intact BTK was incubated for 1 hr at a 10× fold excess of compound I-63 or I-66 to protein. Aliquots (2 ul) of the samples were diluted with 10 ul of 0.1% TFA prior to micro C4 ZipTipping directly onto the MALDI target using Sinapinic acid as the desorption matrix (10 mg/ml in 0.1% TFA:Acetonitrile 20:80). The top panels of FIGS. 12 and 13 show the mass spec trace of the intact BTK protein (m/z 81,169 Da). The bottom panels show the mass spec trace when BTK was incubated with compound I-63 (mw 424.5) or compound I-66 (mw 425.5) in FIGS. 12 and 13, respectively.

Chain of ErbB2 (P04626 23-1255): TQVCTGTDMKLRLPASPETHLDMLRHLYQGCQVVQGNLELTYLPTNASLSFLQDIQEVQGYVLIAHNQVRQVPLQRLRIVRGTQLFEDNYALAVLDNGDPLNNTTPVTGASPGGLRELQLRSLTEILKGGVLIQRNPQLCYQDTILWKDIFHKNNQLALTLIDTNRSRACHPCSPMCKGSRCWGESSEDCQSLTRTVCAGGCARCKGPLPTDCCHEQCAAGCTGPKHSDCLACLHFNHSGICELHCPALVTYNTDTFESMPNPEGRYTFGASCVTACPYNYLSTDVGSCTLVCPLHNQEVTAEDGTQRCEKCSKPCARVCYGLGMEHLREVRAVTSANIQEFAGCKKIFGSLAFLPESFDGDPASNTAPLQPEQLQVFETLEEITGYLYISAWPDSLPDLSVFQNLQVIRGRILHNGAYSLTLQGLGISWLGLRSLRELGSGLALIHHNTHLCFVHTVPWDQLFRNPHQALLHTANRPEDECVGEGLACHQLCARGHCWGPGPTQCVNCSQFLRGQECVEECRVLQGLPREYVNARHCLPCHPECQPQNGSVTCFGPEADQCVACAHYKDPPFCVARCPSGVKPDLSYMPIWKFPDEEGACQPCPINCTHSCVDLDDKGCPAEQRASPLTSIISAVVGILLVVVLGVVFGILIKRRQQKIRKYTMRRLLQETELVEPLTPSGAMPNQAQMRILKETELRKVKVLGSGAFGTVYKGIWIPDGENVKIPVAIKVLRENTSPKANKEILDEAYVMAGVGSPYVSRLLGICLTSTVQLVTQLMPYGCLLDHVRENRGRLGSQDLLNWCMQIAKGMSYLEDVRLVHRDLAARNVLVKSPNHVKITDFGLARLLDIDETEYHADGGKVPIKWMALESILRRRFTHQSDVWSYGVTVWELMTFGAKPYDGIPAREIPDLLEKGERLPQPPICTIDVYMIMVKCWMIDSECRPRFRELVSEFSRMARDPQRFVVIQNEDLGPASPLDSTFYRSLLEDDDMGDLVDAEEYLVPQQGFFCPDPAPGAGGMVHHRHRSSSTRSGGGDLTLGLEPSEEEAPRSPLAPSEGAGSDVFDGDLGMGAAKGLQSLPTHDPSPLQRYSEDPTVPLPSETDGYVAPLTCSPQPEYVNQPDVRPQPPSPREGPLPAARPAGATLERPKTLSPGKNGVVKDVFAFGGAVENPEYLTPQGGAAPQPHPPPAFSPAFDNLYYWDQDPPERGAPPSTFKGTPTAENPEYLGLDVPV
Chain of BTK (Q06187 whole entry): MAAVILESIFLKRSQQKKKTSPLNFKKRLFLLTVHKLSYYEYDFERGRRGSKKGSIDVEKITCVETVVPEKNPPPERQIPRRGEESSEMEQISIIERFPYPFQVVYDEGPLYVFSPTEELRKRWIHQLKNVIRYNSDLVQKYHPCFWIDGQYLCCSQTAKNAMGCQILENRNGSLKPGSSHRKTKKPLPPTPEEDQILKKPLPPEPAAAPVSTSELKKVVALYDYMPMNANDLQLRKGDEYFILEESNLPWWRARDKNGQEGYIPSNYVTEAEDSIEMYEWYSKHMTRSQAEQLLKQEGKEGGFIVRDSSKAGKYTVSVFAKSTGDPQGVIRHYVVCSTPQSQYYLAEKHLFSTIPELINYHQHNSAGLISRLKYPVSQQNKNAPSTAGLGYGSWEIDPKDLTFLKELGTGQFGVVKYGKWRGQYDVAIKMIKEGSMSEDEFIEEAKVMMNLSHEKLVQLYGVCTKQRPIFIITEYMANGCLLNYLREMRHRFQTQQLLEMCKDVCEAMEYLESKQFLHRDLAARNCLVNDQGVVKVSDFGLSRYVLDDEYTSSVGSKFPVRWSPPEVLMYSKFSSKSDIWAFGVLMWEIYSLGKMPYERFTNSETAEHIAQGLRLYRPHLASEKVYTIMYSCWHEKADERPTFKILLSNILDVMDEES
Chain of ErbB4 (Q15303 26-1308): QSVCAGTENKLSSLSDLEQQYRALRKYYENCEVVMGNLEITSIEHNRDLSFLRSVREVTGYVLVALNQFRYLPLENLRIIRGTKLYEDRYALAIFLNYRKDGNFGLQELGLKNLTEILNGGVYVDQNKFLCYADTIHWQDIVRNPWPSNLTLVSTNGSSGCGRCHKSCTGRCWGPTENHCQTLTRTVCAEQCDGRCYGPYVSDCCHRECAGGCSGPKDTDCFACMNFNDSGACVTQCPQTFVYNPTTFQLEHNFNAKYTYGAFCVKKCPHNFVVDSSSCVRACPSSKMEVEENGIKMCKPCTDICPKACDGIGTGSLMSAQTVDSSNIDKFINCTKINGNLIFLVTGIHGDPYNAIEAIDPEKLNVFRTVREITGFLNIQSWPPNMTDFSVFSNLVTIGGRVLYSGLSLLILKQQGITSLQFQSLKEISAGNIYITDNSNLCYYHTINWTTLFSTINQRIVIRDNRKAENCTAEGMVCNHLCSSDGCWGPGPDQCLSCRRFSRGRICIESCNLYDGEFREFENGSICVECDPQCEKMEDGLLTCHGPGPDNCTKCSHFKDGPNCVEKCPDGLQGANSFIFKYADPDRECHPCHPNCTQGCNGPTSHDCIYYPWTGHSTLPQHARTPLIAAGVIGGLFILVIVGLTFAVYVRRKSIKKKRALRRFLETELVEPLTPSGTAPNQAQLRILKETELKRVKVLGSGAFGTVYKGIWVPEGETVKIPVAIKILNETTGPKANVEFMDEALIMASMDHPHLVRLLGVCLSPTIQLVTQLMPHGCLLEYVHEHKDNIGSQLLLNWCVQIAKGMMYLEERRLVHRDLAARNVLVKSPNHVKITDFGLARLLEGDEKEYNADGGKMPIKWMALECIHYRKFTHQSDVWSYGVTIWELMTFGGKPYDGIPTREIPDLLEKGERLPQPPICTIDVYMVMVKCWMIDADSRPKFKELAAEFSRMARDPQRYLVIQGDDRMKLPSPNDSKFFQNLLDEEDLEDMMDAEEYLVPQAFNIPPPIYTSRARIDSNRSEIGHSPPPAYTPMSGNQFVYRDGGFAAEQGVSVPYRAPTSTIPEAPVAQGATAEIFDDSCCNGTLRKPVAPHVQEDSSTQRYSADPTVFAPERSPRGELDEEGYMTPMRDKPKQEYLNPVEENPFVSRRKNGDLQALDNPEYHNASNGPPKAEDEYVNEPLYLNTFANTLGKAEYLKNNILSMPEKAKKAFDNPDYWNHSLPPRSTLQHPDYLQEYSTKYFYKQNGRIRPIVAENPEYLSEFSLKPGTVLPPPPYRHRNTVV
Chain of ErbB1 (P00533 25-1210): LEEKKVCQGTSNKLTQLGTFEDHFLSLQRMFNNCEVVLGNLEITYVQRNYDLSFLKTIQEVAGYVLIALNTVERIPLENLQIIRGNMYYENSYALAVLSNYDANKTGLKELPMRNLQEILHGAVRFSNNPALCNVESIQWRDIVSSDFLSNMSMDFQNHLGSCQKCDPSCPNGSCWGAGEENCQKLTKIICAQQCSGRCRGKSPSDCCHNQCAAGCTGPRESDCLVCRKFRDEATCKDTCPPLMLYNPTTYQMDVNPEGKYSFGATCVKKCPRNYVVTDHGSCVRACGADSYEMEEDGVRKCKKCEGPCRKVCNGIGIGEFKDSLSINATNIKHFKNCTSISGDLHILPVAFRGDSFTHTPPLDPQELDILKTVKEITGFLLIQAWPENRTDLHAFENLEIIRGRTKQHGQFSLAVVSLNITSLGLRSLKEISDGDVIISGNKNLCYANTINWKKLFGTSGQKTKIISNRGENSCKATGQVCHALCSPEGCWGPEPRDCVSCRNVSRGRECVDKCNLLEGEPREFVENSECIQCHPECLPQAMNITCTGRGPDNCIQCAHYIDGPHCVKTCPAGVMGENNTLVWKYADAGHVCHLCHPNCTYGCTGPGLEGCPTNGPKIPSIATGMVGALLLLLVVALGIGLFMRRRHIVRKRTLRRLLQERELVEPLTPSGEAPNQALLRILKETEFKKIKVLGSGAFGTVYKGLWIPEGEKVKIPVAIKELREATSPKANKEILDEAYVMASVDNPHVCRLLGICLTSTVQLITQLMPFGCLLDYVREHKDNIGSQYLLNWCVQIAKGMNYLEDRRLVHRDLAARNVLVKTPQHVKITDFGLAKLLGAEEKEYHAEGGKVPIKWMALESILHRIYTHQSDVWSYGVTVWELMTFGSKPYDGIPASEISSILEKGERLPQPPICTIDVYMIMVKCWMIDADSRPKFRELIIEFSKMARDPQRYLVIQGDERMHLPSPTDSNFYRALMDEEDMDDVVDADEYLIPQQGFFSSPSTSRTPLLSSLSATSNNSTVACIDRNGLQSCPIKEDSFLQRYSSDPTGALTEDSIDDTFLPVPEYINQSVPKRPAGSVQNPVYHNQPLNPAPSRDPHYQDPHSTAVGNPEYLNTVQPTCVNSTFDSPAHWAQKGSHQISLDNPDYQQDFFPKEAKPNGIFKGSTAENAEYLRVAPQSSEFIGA

Compound	modification of intact BTK by mass shift [6]	inhibition at 1 µM [2]	BTK Inhibition Type [3]	other results
C=CC(=O)Nc1cccc(Nc2cc(Nc3ccc(Oc4ccccc4)cc3)ncn2)c1 [I-13, N-{3-[6-(4-phenoxyphenylamino)-pyrimidin-4-ylamino]phenyl}-2 propenamide]		98%	irreversible	inhibition at 1 µM ([1]; @ 1 μM): 92%; inhibition of BTK after washout over time ([3]; Ramos cells, 100 nM, 0, 4, 6 and 8 hour time points): maintains inhibition of BTK for 8 hours; modification of TEC peptide GCLLNFLR in tryptic digest [4]: reaction was complete
C=CC(=O)Nc1cccc(Nc2cc(Oc3cccc(C)c3)ncn2)n1 [I-65]			reversible	
C=CC(=O)Nc1cccc(Nc2cc(Nc3cccc(Br)c3)ncn2)c1 [I-1, N-{3-[6-(3-bromophenylamino)-pyrimidin-4-ylamino]-phenyl}-2-propenamide]		76%		inhibition at 0.01 µM ([1]; @ 10 nM): 99%; inhibition at 0.1 µM ([2]; @ 100 nM): 61%; inhibition at 0.1 µM ([5]; @ 100 nM): 64%; inhibition at 1 µM ([5]; @ 1 μM): 86%
CN(C)C/C=C/C(=O)Nc1cccc(Nc2cc(Nc3ccc(Oc4ccccc4)cc3)ncn2)n1 [I-64, (E)-4-(dimethylamino)-N-(6-(6-(4-phenoxyphenylamino)pyrimidin-4-ylamino)pyridine-2-yl)but-2-enamide]			irreversible	

Now from value to molecule, other results behind:

modification of intact BTK by mass shift [6]	Compound	inhibition at 1 µM [2]	BTK Inhibition Type [3]	other results
complete modification of BTK	C=CC(=O)Nc1cccc(Nc2cc(Nc3ccc(Oc4ccccc4)cc3)ncn2)n1 [I-63]		irreversible	
complete modification of BTK	C=CC(=O)Nc1cccc(Nc2cc(Oc3ccc(Oc4ccccc4)cc3)ncn2)n1 [I-66]		irreversible	
